Tests used:
[1] = system: HCT116 and A375 cell lines; assay: Cell proliferation assay (CellTiter-Glo); type: cell-based; settings: Homo sapiens; in either cell line (HCT116 or A375); 72 h exposure
Procedure: Compounds are tested in a cell proliferation assay using the following cell lines:
(§1) Both cell lines are maintained in DMEM/F12 (1:1) media (Gibco) supplemented with 10% FCS at 37° C. in a 5% CO2 humidified incubator.
Cells are seeded in 96-well plates at 2,000 cells/well and after 24 hours they are exposed to different concentrations of compounds in 0.83% DMSO. Cells are grown for a further 72 h, and an equal volume of CellTiter-Glo reagent (Promega) is added to each well. This lyses the cells and generates a luminescent signal proportional to the amount of ATP released (and therefore proportional to the number of cells in the well) that can be detected using a multi-well luminometer.
The EC50 is defined as the concentration at which a given compound achieves 50% inhibition of control. IC50 values are calculated using the XLfit software package (version 2.0.5).

[2] = system: phospho-ERK in HCT116 and A375 cell lines; assay: Phospho-ERK cell-based assay; settings: Homo sapiens; in either cell line (HCT116 or A375); 2 h or 24 h exposure
Procedure: Compounds are tested in a cell-based phospho-ERK ELISA using the following cell lines:
as §1
Cells are seeded in 96-well plates at 2,000 cells/well and after 24 h they are exposed to different concentrations of compounds in 0.83% DMSO. Cells are grown for a further 2 h or 24 h, fixed with formaldehyde (2% final) and permeabilised with methanol. Following blocking with TBST-3% BSA, fixed cells are incubated with primary antibody (anti-phospho ERK from rabbit) over-night at 4° C. Cells are incubated with Propidium Iodide (DNA fluorescent dye) and detection of cellular p-ERK is performed using an anti-rabbit secondary antibody conjugated to the fluorescent Alexa Fluor 488 dye (Molecular probes). The fluorescence is analysed using the Acumen Explorer (TTP Labtech), a laser-scanning microplate cytometer, and the Alexa Fluor 488 signal is normalised to the PI signal (proportional to cell number).
The EC50 is defined as the concentration at which a given compound achieves a signal half way between the baseline and the maximum response. EC50 values are calculated using the XLfit software package (version 2.0.5).

Structure (SMILES): Cn1c(C(=O)NOC[C@H](O)CO)c(Nc2ccc(I)cc2F)c2cnccc21 [Example 5, 3-(2-Fluoro-4-iodo-phenylamino)-1-methyl-1H-pyrrolo[3,2-c]pyridine-2-carboxylic acid ((R)-2,3-dihydroxy-propoxy)-amide]
- EC50 [1]: < 10 µM
- EC50 [2]: < 10 µM

Structure (SMILES): Cn1c(C(=O)NOCCO)c(Nc2ccc(I)cc2F)c2cnccc21 [Example 6, 3-(2-Fluoro-4-iodo-phenylamino)-1-methyl-1H-pyrrolo[3,2-c]pyridine-2-carboxylic acid (2-hydroxy-ethoxy)-amide]
- EC50 [1]: < 10 µM
- EC50 [2]: < 10 µM

Structure (SMILES): COCCn1c(C(=O)NOCCO)c(Nc2ccc(I)cc2F)c2cnccc21 [Example 7]
- EC50 [1]: < 10 µM
- EC50 [2]: < 10 µM

Structure (SMILES): COc1ccc(Cn2c(C(=O)NOCCO)c(Nc3ccc(I)cc3F)c3cnccc32)cc1 [Example 8]
- EC50 [1]: < 10 µM
- EC50 [2]: < 10 µM

Structure (SMILES): O=C(NOCCO)c1[nH]c2ccncc2c1Nc1ccc(I)cc1F [Example 10]
- EC50 [1]: < 10 µM
- EC50 [2]: < 10 µM

Structure (SMILES): CCn1c(C(=O)NOCCO)c(Nc2ccc(I)cc2F)c2cnccc21 [Example 11]
- EC50 [1]: < 10 µM
- EC50 [2]: < 10 µM

Structure (SMILES): Cn1c(C(=O)NO)c(Nc2ccc(I)cc2F)c2cnccc21 [Example 13]
- EC50 [1]: < 10 µM
- EC50 [2]: < 10 µM

Structure (SMILES): Cn1c(C(=O)NOCC2CC2)c(Nc2ccc(I)cc2F)c2cnccc21 [Example 15]
- EC50 [1]: < 10 µM
- EC50 [2]: < 10 µM

Structure (SMILES): Cn1c(C(N)=O)c(Nc2ccc(I)cc2F)c2cnccc21 [Example 16]
- EC50 [1]: < 10 µM
- EC50 [2]: < 10 µM

Structure (SMILES): COc1ccc(Cn2c(C(N)=O)c(Nc3ccc(I)cc3F)c3cnccc32)cc1 [Example 17]
- EC50 [2]: < 10 µM

Structure (SMILES): O=C(NOCCO)c1c(Nc2ccc(I)cc2F)c2cnccc2n1CC1CC1 [Example 23]
- EC50 [1]: < 10 µM
- EC50 [2]: < 10 µM

Structure (SMILES): O=C(NOCCO)c1c(Nc2ccc(I)cc2F)c2cnccc2n1Cc1ccccc1 [Example 24]
- EC50 [1]: < 10 µM
- EC50 [2]: < 10 µM

Structure (SMILES): O=C(NOCCO)c1c(Nc2ccc(I)cc2F)c2cnccc2n1Cc1ccncc1 [Example 25]
- EC50 [1]: < 10 µM
- EC50 [2]: < 10 µM

Structure (SMILES): O=C(NOCCO)c1c(Nc2ccc(I)cc2F)c2cnccc2n1Cc1cccnc1 [Example 26]
- EC50 [1]: < 10 µM
- EC50 [2]: < 10 µM

Structure (SMILES): O=C(NOCCO)c1c(Nc2ccc(I)cc2F)c2cnccc2n1Cc1ccccc1F [Example 27]
- EC50 [1]: < 10 µM
- EC50 [2]: < 10 µM

Structure (SMILES): O=C(NOCCO)c1c(Nc2ccc(I)cc2F)c2cnccc2n1Cc1cccc(C(F)(F)F)c1 [Example 28]
- EC50 [2]: < 10 µM

Structure (SMILES): CS(=O)(=O)c1ccc(Cn2c(C(=O)NOCCO)c(Nc3ccc(I)cc3F)c3cnccc32)cc1 [Example 29]
- EC50 [2]: < 10 µM

Structure (SMILES): CN(C)C(=O)c1ccc(Cn2c(C(=O)NOCCO)c(Nc3ccc(I)cc3F)c3cnccc32)cc1 [Example 30]
- EC50 [2]: < 10 µM

Structure (SMILES): O=C(NOCCO)c1c(Nc2ccc(I)cc2F)c2cnccc2n1CCc1ccccc1 [Example 31]
- EC50 [1]: < 10 µM
- EC50 [2]: < 10 µM

Structure (SMILES): O=C(NOCCO)c1c(Nc2ccc(I)cc2F)c2cnccc2n1Cc1ccc(F)cc1 [Example 33]
- EC50 [1]: < 10 µM
- EC50 [2]: < 10 µM

Structure (SMILES): O=C(NOCCO)c1[nH]c2c(Cl)cncc2c1Nc1ccc(I)cc1F [Example 34]
- EC50 [2]: < 10 µM

Structure (SMILES): Cn1c(C(=O)NOCCO)c(Nc2ccc(I)cc2F)c2cncc(F)c21 [Example 37]
- EC50 [1]: < 10 µM
- EC50 [2]: < 10 µM

Structure (SMILES): O=C(NOCC1CC1)c1[nH]c2ccncc2c1Nc1ccc(I)cc1F [Example 38]
- EC50 [1]: < 10 µM
- EC50 [2]: < 10 µM

Structure (SMILES): Cn1c(C(=O)NOCCO)c(Nc2ccc(I)cc2F)c2cncc(Cl)c21 [Example 39]
- EC50 [1]: < 10 µM
- EC50 [2]: < 10 µM

Structure (SMILES): CC(C)(C)ONC(=O)c1[nH]c2ccncc2c1Nc1ccc(I)cc1F [Example 40]
- EC50 [1]: < 10 µM
- EC50 [2]: < 10 µM

Structure (SMILES): O=C(NOCCO)c1c(Nc2ccc(I)cc2F)c2cnccc2n1CCCO [Example 41]
- EC50 [1]: < 10 µM
- EC50 [2]: < 10 µM

Structure (SMILES): CN(C)C(=O)c1ccc(Cn2c(C(=O)NOCCO)c(Nc3ccc(I)cc3F)c3cnccc32)cc1 [Example 42]
- EC50 [1]: < 10 µM

Structure (SMILES): O=C(NOCCO)c1c(Nc2ccc(I)cc2F)c2cnccc2n1Cc1ccc(C(F)(F)F)cc1 [Example 43]
- EC50 [1]: < 10 µM
- EC50 [2]: < 10 µM

Structure (SMILES): N#Cc1ccc(Cn2c(C(=O)NOCCO)c(Nc3ccc(I)cc3F)c3cnccc32)cc1 [Example 44]
- EC50 [1]: < 10 µM
- EC50 [2]: < 10 µM

Structure (SMILES): CN(C)C(=O)c1cccc(Cn2c(C(=O)NOCCO)c(Nc3ccc(I)cc3F)c3cnccc32)c1 [Example 45]
- EC50 [1]: < 10 µM
- EC50 [2]: < 10 µM

Structure (SMILES): N#Cc1ccc(Cn2c(C(=O)NOCCO)c(Nc3ccc(I)cc3F)c3cnccc32)s1 [Example 46]
- EC50 [1]: < 10 µM
- EC50 [2]: < 10 µM

Structure (SMILES): CN(C)S(=O)(=O)c1cccc(Cn2c(C(=O)NOCCO)c(Nc3ccc(I)cc3F)c3cnccc32)c1 [Example 47]
- EC50 [1]: < 10 µM
- EC50 [2]: < 10 µM

Structure (SMILES): N#Cc1cccc(Cn2c(C(=O)NOCCO)c(Nc3ccc(I)cc3F)c3cnccc32)c1 [Example 48]
- EC50 [1]: < 10 µM
- EC50 [2]: < 10 µM

Structure (SMILES): O=C(NOCCO)c1[nH]c2c(F)cncc2c1Nc1ccc(I)cc1F [Example 49]
- EC50 [1]: < 10 µM
- EC50 [2]: < 10 µM

Structure (SMILES): CN(C)S(=O)(=O)c1ccc(Cn2c(C(=O)NOCCO)c(Nc3ccc(I)cc3F)c3cnccc32)cc1 [Example 50]
- EC50 [2]: < 10 µM

Structure (SMILES): C[C@H](O)CONC(=O)c1c(Nc2ccc(I)cc2F)c2cncc(F)c2n1C [Example 54]
- EC50 [1]: < 10 µM
- EC50 [2]: < 10 µM

Structure (SMILES): CSc1ccc(Nc2c(C(=O)NOCCO)n(C)c3ccncc23)c(F)c1 [Example 56]
- EC50 [1]: < 10 µM
- EC50 [2]: < 10 µM

Structure (SMILES): CSc1ccc(Nc2c(C(=O)NOC(C)(C)CO)n(C)c3ccncc23)c(F)c1 [Example 57]
- EC50 [1]: < 10 µM
- EC50 [2]: < 10 µM

Structure (SMILES): CSc1ccc(Nc2c(C(=O)NOC[C@H](C)O)n(C)c3ccncc23)c(F)c1 [Example 58]
- EC50 [1]: < 10 µM
- EC50 [2]: < 10 µM

Structure (SMILES): CSc1ccc(Nc2c(C(=O)NOC(C)(C)CO)[nH]c3ccncc23)c(F)c1 [Example 59, 3-(2-Fluoro-4-methylsulfanyl-phenylamino)-1H-pyrrolo[3,2-c]pyridine-2-carboxylic acid (2-hydroxy-1,1-dimethyl-ethoxy)-amide semiformate]
- EC50 [1]: < 10 µM
- EC50 [2]: < 10 µM

Structure (SMILES): O=C(NOCCO)c1c(Nc2ccc(I)cc2F)c2cnccc2n1C1CC1 [Example 61, 1-Cyclopropyl-3-(2-fluoro-4-iodo-phenylamino)-1H-pyrrolo[3,2-c]pyridine-2-carboxylic acid (2-hydroxy-ethoxy)-amide]
- EC50 [1]: < 10 µM
- EC50 [2]: < 10 µM

Structure (SMILES): CSc1ccc(Nc2c(C(=O)NOCCO)n(C3CC3)c3ccncc23)c(F)c1 [Example 62, 1-Cyclopropyl-3-(2-fluoro-4-methylsulfanyl-phenylamino)-1H-pyrrolo[3,2-c]pyridine-2-carboxylic acid (2-hydroxy-ethoxy)-amide]
- EC50 [2]: < 10 µM

Structure (SMILES): O=C(NOCC(O)CO)c1c(Nc2ccc(I)cc2F)c2cnccc2n1C1CC1 (stereo not shown) [Example 63, 1-Cyclopropyl-3-(2-fluoro-4-iodo-phenylamino)-1H-pyrrolo[3,2-c]pyridine-2-carboxylic acid (2,3-dihydroxy-propoxy)-amide]
- EC50 [1]: < 10 µM
- EC50 [2]: < 10 µM

Structure (SMILES): C#CCn1c(C(=O)NOCCO)c(Nc2ccc(I)cc2F)c2cnccc21 [Example 64, 3-(2-Fluoro-4-iodo-phenylamino)-1-prop-2-ynyl-1H-pyrrolo[3,2-c]pyridine-2-carboxylic acid (2-hydroxy-ethoxy)-amide]
- EC50 [1]: < 10 µM
- EC50 [2]: < 10 µM

Structure (SMILES): O=C(NOCCO)c1c(Nc2ccc(I)cc2F)c2cnccc2n1CC#CCO [Example 65, 3-(2-Fluoro-4-iodo-phenylamino)-1-(4-hydroxy-but-2-ynyl)-1-H-pyrrolo[3,2-c]pyridine-2-carboxylic acid (2-hydroxy-ethoxy)-amide]
- EC50 [1]: < 10 µM
- EC50 [2]: < 10 µM

From US7855216B2, “Aza-indolyl compounds and methods of use” (Genentech, Inc., priority 2006, dated 2010)
